From patent publication EP0580409A2, “Cosmetic composition containing DOPA derivatives” (UNILEVER PLC, priority 1992, dated 1994)
Counter-ions that a name gives are not always drawn.

What was measured:
[1] = system: isolated living human hair follicles; assay: in vitro test of darkening of hair on regrowth with isolated hair follicles in culture; assay type: cell-based
Description: The isolation of individual hair follicles and their culture will now be described.
The method of testing includes the important step of isolating hair follicles having an undamaged hair bulb from skin, preferably from human skin, by microdissection, but preferably without the enzymic pretreatment advocated by other workers in this field.
The critical step of separating the hair follicle with intact undamaged hair bulb from the subcutaneous fatty tissue in which it is situated accordingly involves severing the hair shaft of the follicle at a point below the epidermis or skin surface, so as to leave the hair bulb intact and undamaged while still bearing a portion of the hair shaft.
(§1) In accordance with the preferred method of culture, isolated hair follicles were maintained in 500µl of Williams E medium, containing the test substance (substituted DOPA) at a concentration of 1mM, at 37°C in an atmosphere of 5% CO₂ + 95% air in individual wells of a 24 multiwell dish (Corning), which permitted detailed observations of the colour and measurements to be made of individual hair follicles.
Hair shaft length measurements and colour changes, i.e. darkening, were made on these follicles, using a Nikon Diaphot inverted binocular photo microscope with eye piece measuring graticules, over seven days in culture.
Groups of eight freshly isolated hair follicles were maintained in a Williams E medium under the conditions stated above. For a control group of follicles the medium contained no test substance. For other groups of follicles the medium contained the test substance at 0.1mM concentration of 1mM concentration, In all cases the growth medium additionally contained L-glutamine (2mM), Penicillin (50 IU/ml), streptomycin (50 ug/ml), insulin (10 ug/ml) and hydrocortisone (10 ng/ml).
(§2) The follicles were photographed at the start of the incubation period and again after incubation for two or four days. The growth and morphology of the follicles was monitored during the culture period.

cultured follicles = assay: melanin formation by cultured hair follicles, spectrophotometric at 540nm; assay type: cell-based, human; conditions: 12 cultured follicles per assay; control 1.11
Protocol: Melanin formation by these follicles was assessed. The procedure was based on that of Gardon and Gilchrest, 1989. For each assay 12 cultured follicles were placed in 500ul of 1M NaOH and incubated overnight at 4°C. The follicles were then homogenised and centrifuged at 14,000 rpm for 2 min. The supernatant was removed, 200ul samples added to a 96 well plate and the melanin content then determined spectrophotometrically at 540nm. A standard curve was also prepared from synthetic melanin dissolved in 1M NaOH. The protein content of each sample was also determined by the Folin & Lowry method, with the absorbance being read at 540nm. […] Results were expressed as ug melanin/mg soluble protein.

[2] = system: isolated living human hair follicles; assay: observation of inhibition or damage of cultured hair follicles; assay type: cell-based; conditions: follicles cultured with test substance at 0.1mM or 1mM
Protocol: as §1
Groups of eight freshly isolated hair follicles were maintained in a Williams E medium under the conditions stated above. For a control group of follicles the medium contained no test substance. […]
as §2
Melanin formation by these follicles was assessed. […] The supernatant was removed, 200ul samples added to a 96 well plate and the melanin content then determined spectrophotometrically at 540nm. […] The protein content of each sample was also determined by the Folin & Lowry method, with the absorbance being read at 540nm. […] Results were expressed as ug melanin/mg soluble protein.

[3] = 0.1mM test substance in Williams E medium, after 48 hrs
[4] = 1mM test substance in Williams E medium, 96 hrs

Structure (SMILES)	DARKENING OBSERVED [1, 3]	µg Melanin/mg soluble protein (cultured follicles)	inhibit or damage the follicles [2]	DARKENING OBSERVED [1, 4]
CC(N)(Cc1ccc(O)c(O)c1)C(=O)O (centres unmarked) [2-methyl-3-(3,4-dihydroxyphenyl)alanine, 2-methyl-3-(3,4-dihydroxyphenylalanine)]	YES (after 48 hrs)	8.36 µg Melanin/mg soluble protein	did not appear to inhibit or damage the follicles	–
CC(=O)Oc1ccc(C[C@H](N)C(=O)O)cc1OC(C)=O [3,4-diacetyl-L-DOPA hydrochloride]	–	–	–	YES (96 hrs)
NC(C(=O)O)C(O)c1ccc(O)c(O)c1 (centres unmarked) [Dihydroxyphenylserine, 3,4-dihydroxyphenylserine]	YES (after 48 hrs)	6.31 µg Melanin/mg soluble protein	did not appear to inhibit or damage the follicles	–
COC(=O)[C@@H](N)Cc1ccc(OC(C)=O)c(OC(C)=O)c1 [methyl-3,4-diacetyl-L-DOPA hydrochloride]	–	–	–	YES (96 hrs)
